From article PMC7672424 (Nucleic Acids Research, 2020) come the findings set out here.

For data set [1], the system named is FAM-TTA45-TAMRA (DNA, G4) GGGTTAGGGTTAGGGTTAGGGTTAGGGTTAGGGTTAGGGTTAGGG
The experiment in a line: FRET melting. The note with it: 100 mM K+ (KCl) plus potassium phosphate; 10 mM K2HPO4/KH2PO4 pH 7.0; 0.5 µM DNA, 20 µM compound.

In data set [2] the test system is dimeric G-quadruplexes (TTA45). Kind of data set: Fluorescence response of BMPQ-1 to DNA. It counts as binding, human. Particulars: 3 μM BMPQ-1, 2 μM TTA45, λex = 395 nm. The method, then: Figure 1. (A) Structure of BMPQ-1. (B) Fluorescence spectra of BMPQ-1 at λex = 395 nm in the absence or presence of dimeric G-quadruplexes (TTA45), monomeric G-quadruplexes (c-KIT1, c-KIT2, c-MYCPu22, TTA, VEGF, TBA), trinucleotide DNA (CGG12), duplex DNA (19AT) and single-stranded DNA (dT30). The concentration of BMPQ-1 was 3 μM. The concentration of TTA45 was 2 μM and DNAs with other structures were 4 μM. (C) Fluorescence spectra of 6 μM BMPQ-1 at λex = 395 nm in the absence or presence of 2 μM telomeric G-quadruplexes. Oligonucleotide samples were prepared in solution with 10 mM K2HPO4/KH2PO4, pH 7.0, 100 mM KCl. (D) Effect of BMPQ-1 on the CD spectra of 10 μM TTA45 in 10 mM Tris-HCl buffer (pH 7.4) containing 100 mM KCl.
G-quadruplex forming oligonucleotides were annealed in the buffer (10 mM K2HPO4/KH2PO4 pH 7.0, 100 mM KCl) by heating to 95°C for 5 min, followed by gradual cooling to room temperature. Fluorescence spectra were detected by RF-5301PC spectrofluorophotometer (Shimadzu, Japan) at room temperature. The spectra were recorded with 5 nm excitation and emission slit widths. […] For the fluorescence measurements between BMPQ-1 and different DNA sequences, the final concentrations of multimeric G-quadruplex forming oligonucleotides were 2 μM and other DNA oligonucleotides were 4 μM.

The subject of data set [3] is TTA69. The experiment in a line: CD melting, DNA stabilization. The data set is classed as binding, human. Particulars: 5 µM DNA, 20 µM BMPQ-1, 10 mM Tris-HCl, 50 mM KCl, pH 7.4.
Procedure: CD studies were performed on a Chirascan circular dichroism spectrophotometer (Jasco, Easton, MD, USA). A quartz cuvette with a 1 mm path length was used to record the spectra over a wavelength range of 220–320 nm with a 1 nm bandwidth. All the samples were prepared in buffer containing 10 mM Tris–HCl pH 7.4, 100 mM KCl. To ensure the concentrations of G-quadruplex units to be 20 μM, multiple G-quadruplexes forming oligonucleotides with different concentrations were used (TTA (G1) 20 μM, TTA45 (G2) 10 μM, TTA69 (G3) 6.67 μM, TTA93 (G4) 5 μM, TTA117 (G5) 4 μM, TTA141 (G6) 3.33 μM). The DNA samples were heated at 95°C for 5 min and cooled down slowly to room temperature. 20, 40 and 60 μM BMPQ-1 were mixed with DNAs separately. Melting curves were measured at 295 nm and the range of temperature was 4–95°C.
The test system of data set [4] is 19AT (DNA, duplex) ACGTCGATTATAGACGAGC/GCTCGTCTATAATCGACGT
The experiment in a line: CD melting. Particulars: 50 mM K+; 10 mM Tris-HCl pH 7.4; 5 µM DNA, 20 µM compound.

Data set [5] deals with HT29 xenograft. The experiment in a line: HT29 xenograft mouse model. It counts as in vivo. The method, then:
Male BALB/C-nu/nu mice (4 weeks old) were purchased from the Beijing Vital River Laboratory Animal Technology Co., Ltd. and housed at Experimental Animal Center of Huazhong Agriculture University (Wuhan, China) and maintained in pathogen-free conditions (12 h light–dark cycle at 24 ± 1°C with 60−70% humidity and provided with food and water ad libitum). HT29 cells were harvested during log-phase growth and were resuspended in FBS-free DMEM medium to the density of 4 × 10^6 cells per 100 μl. 100 μl cells were injected subcutaneously in the right back of the mice. Tumor growth was examined three times a week after implantation, until the tumor volume reached ∼40 mm^3. The mice were randomly divided into two groups, and each group had five mice. Subcutaneous injection was carried out with BMPQ-1 at a dose of 15 mg/kg for the mice in the experimental group. Mice in the control group were treated with an equivalent volume of normal saline. The volume of the tumor mass was measured with an electronic caliper and calculated as 1/2 × length × width^2 in mm^3. The tumors size and the body weight of the mice were measured every day after drug treatment, and growth curves were plotted using average tumor volume within each experimental group. After treatment for 3 weeks, tumor tissues were collected and tested for the weight and the volume.
We tested BMPQ-1 in a HT29 xenograft mouse model of human colon adenocarcinoma. HT29 tumors were established through the subcutaneous injection of HT29 cells into the right back of BALB/C-nu/nu mice ([57],[58]). The mice were divided into normal saline treated group, and BMPQ-1 (15 mg/kg) treated group, n = 5/group. Subcutaneous injection was given daily. After 3 weeks treatment, the tumors were excised and measured for final size (Figure 3B). The tumor volume in the normal saline group reached 700 mm^3 (Figure 3C). In contrast, in the tumor-bearing mice treated with BMPQ-1, the tumor volume was ∼300 mm^3.

In data set [6] the test system is TTA45 (DNA, G4) GGGTTAGGGTTAGGGTTAGGGTTAGGGTTAGGGTTAGGGTTAGGG
The experiment in a line: CD melting. The note with it: 50 mM K+; 10 mM Tris-HCl pH 7.4; 5 µM DNA, 20 µM compound.

Setting [7] is: 15 mg/kg subcutaneous daily, 3 weeks.

On to `Cc1ccc(Cn2cc3c(-c4ccc5c(c4)OCO5)nnc-3c3cc4c(cc32)OCO4)cc1` [BMPQ-1], for which the ΔTm amounted to 16.09 ± 1.79 °C in data set [1], 1.8 °C in data set [4] and 14.6 °C in data set [6]. For the same molecule, the “fluorescence increase at 521 nm” value in data set [2] is 10 fold. Also, in data set [3], the “ΔTm (°C) TTA69” value was 13.8 °C. In data set [5] (setting [7]), the mouse body weight entry is given as “no significant change”. Moreover, the tumor weight result in data set [5] (setting [7]) is recorded as “obvious decrease”. The tumor volume in data set [5] (15 mg/kg subcutaneous daily, 3 weeks, saline group 700 mm^3) is recorded as roughly 300 mm^3. Also, the “tumor growth rate in mouse” value in data set [5] (versus control) is “by half”.

In general, ΔTm refers to the change in melting temperature against a reference sample.
